Reference: patent US11247994B2, “6-dithio-substituted-2′-deoxyguanosine compound, preparation method thereof and use thereof” (ZHEJIANG UNIVERSITY, priority 2018, dated 2022)

Legend:
[1] = biological target: T1, TrxR/Trx-1 (Homo sapiens, UniProt P10599); assay: Ellman test, inhibition of TrxR/Trx-1 activity; type: biochemical; conditions: read-out: TrxR/Trx-1 IC50
T1 sequence (P10599 2-105 limits assumed): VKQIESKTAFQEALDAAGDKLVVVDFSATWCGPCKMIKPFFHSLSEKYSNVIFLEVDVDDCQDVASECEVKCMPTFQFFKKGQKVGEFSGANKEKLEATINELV
Source text: Ellman Test—Inhibitory Effect of 6-dithio-substituted-2′-deoxyguanosine Derivative Analogues on TrxR/Trx-1 Activity
A TrxR/TR experiment based on the Ellman reaction was used to determine the inhibitory activity of candidate compounds. Ellman reaction is that 5,5′-dithiobis (2-nitrobenzoic acid) (DTNB) reacts with sulfhydryl (—SH) to form a yellow substance with absorption at 412 nm. The increase of absorption can be equivalent to the decrease of NADPH mediated by TrxR, thus further judging the activity of TrxR/Trx-1. All experiments were carried out on 96-well plates. Before the start of the enzyme reaction, five groups of corresponding test compound stock solutions with different concentrations were prepared. In the TrxR/Trx-1 reaction, a total volume per well was 60 μL, including 100 mM HEPES, 5 mM EDTA (HE buffer, pH 7.5), 1 mM NADPH, 1.0 μM TrxR, 0.8 μM Trx-1, 2.5 mg/mL bovine insulin and the required concentration of compounds to be tested. No compound to be tested was added to the control group. No compound to be tested, TrxR and Trx-1 were added in the blank group. The plate was shaken on an oscillator for 30 seconds to fully mix the reactants. After incubation at 37° C. for 30 min, 100 μL of the prepared mixture containing 6 M guanidine hydrochloride, 50 mm Tris and 10 mm DTNB was added to terminate the reaction. After 15 minutes of incubation, the absorbance was measured at 412 nm. Finally, TrxR/Trx-1 activity %=(Atest−Akb)/(Acontrol−Akb), that is, the relative percentage of TrxR/Trx-1 activity was the activity inhibited by adding 2′-deoxyguanosine derivatives relative to the activity without 2′-deoxyguanosine derivatives. The data were fitted into a concentration response curve with a variable slope, and the IC50 value was calculated from the curve.

[2] = test system: human melanoma cells A375; assay: MTT assay, tumor cell growth inhibition, A375; type: cell-based; conditions: A-375, 48 hours
Source text: (§1) MTT Assay—Inhibitory Effect of 6-dithio-substituted-2′-deoxyguanosine Derivatives on Tumor Cell Growth
(§2) We measured the tumor cell growth inhibitory activity of candidate compounds by MTT assay. Human tumor cells in logarithmic growth phase were digested with 0.25% pancreatin for a certain time, centrifuged, re-suspended and counted with a blood cell counting plate to prepare a cell suspension, and the cell suspension was adjusted to 1.0×10^4-1×10^5 cells/mL. The cell suspension was inoculated into a 96-well culture plate, 100 μL per well, and cultured in an incubator with saturated humidity, 37° C. and 5% CO2 for 24 hours until the cells completely adhered to the wall. The test compound was diluted to the required concentration with a complete medium, the complete medium of the 96-well culture plate inoculated with human tumor cells was sucked out, a medicament-containing medium was added, 100 μL per well, the final concentration of DMSO was less than 0.1%, and the culture plate was put in an incubator for 48 hours. 10 μl of MTT was added to each well of the 96-well plate, and the culture was continued for 4 h. The culture was stopped and the culture solution in the well was carefully sucked off. 150 μL DMSO was added to each well, and shaken at a low speed for 10 min on a shaking table, so that the crystal was fully dissolved. The absorbance of each well was measured at OD 570 nm of an enzyme-linked immunosorbent assay instrument. At the same time, zeroing wells (the culture medium, MTT, dimethyl sulfoxide) and control wells (cells, a drug dissolution medium with the same concentration, a culture solution, MTT, dimethyl sulfoxide) were set up, and the cell growth inhibitory activity was calculated with the corresponding solvents as the control. 3-6 multiple wells in each group were set up with repetition of several times. Cell viability of control=(Adrug group−Azeroing well)/(Acontrol well−Azeroing well)*100%. Drawing was drawn, the data were fitted into a concentration response curve with a variable slope, and IC50 value was calculated from the curve.

[3] = test system: human breast cancer cells MCF7; assay: MTT assay, tumor cell growth inhibition, MCF7; type: cell-based; conditions: 48 hours
Source text: as §1, §2

[4] = test system: human breast cancer cells Bcap37; assay: MTT assay, tumor cell growth inhibition, Bcap37; type: cell-based; conditions: 48 hours
Source text: as §1, §2

**Q.** How did the IC50 [1] turn out when `CC(C)SSc1nc(N)nc2c1ncn2[C@H]1C[C@H](O)[C@@H](CO)O1` [D, 6-(isopropyldithio)-2′-deoxyguanosine] was run?
**A.** Its IC50 is 4.26 µM.

**Q.** And the IC50 [2]?
**A.** The IC50 was 0.37 µM.

**Q.** What about the IC50 [3] of the same compound?
**A.** The IC50 was 41.3 µM.

**Q.** What about the IC50 [4] of the same compound?
**A.** Its IC50 is 22.8 µM.
